Entries after “also recorded” stand apart in the source; their conditions may differ. Marks after values point to notes of the source that are not given here.
Assays:
[1] = cited from earlier work
[2] = system: basal cell carcinomas and melanomas; experiment: Clinical trials of bleomycin-EPT for basal cell carcinomas and melanomas; assay type: in vivo, humans; conditions: for % RESPONSE CR D′D / % RESPONSE CR D′E′ / TUMOR RESPONSE CR D′D / TUMOR RESPONSE CR D′E′: CR=complete response; for % RESPONSE NE D′D / % RESPONSE NE D′E′ / TUMOR RESPONSE NE D′D / TUMOR RESPONSE NE D′E′: NE=no effect
Text: The following examples illustrate the use of EPT in cell lines, animals and humans. Example 1 illustrates EPT in poorly differentiated human pancreatic tumors (Panc-3) xenografted subcutaneously on the flank of nude mice. […] Example 4 provides in vitro data for EPT utilizing low voltage (electric field) and long pulse length. The parameters for EPT are described in the examples; for Example 1 and for the head and neck clinical trials, the nominal electric field was 1300 V/cm and 6 pulses for 99-100 μsec, spaced at 1 second intervals. The clinical trials (Example 2) used similar parameters, however the electric field was 1130 V/cm. (Nominal electric field (V/cm) is applied voltage (V) across the needle pairs divided by the distance between the needle pairs (cm).) The Examples illustrate the use of EPT for effectively killing undesired cell populations (e.g., a tumor) in vitro and in vivo.
The effectiveness of bleomycin-EPT on the tumors was to be assessed by the end of the eight-week period using the same tumor response criteria as employed in Example 1.
The concentration of bleomycin administered was 5 U/1 mL. The dosages of bleomycin were administered as follows: […]

[3] = system: poorly differentiated human pancreatic tumor (Panc-3); experiment: EPT with bleomycin of Panc-3 tumors xenografted in nude mice; assay type: in vivo, nude mouse; conditions: for Complete Regression (100%), number of mice / Death, number of mice / No Response, number of mice / Partial Regression (≧80%), number of mice / Tumor regrowth, number of mice: of 25 mice treated; for Tumor volume (mm^3) T1: treated mouse T1; for Tumor volume (mm^3) T2: treated mouse T2
Procedure: The single treatment procedure involved injection of bleomycin (0.5 units in 0.15 ml saline) intratumorally, using fanning, as described herein followed by application of six square wave electrical pulses, ten minutes later, using needle array electrodes as described in the present application, arranged along the circumference of a circle 1 cm in diameter. Needle array of variable diameters (e.g., 0.5 cm, 0.75 cm and 1.5 cm can also be used to accommodate tumors of various sizes. Stoppers of various heights can be inserted at the center of the array to make the penetration depth of the needles into the tumor variable. A built-in mechanism allowed switching of electrodes for maximum coverage of the tumor by the pulsed field. The electrical parameters were: 780 V/cm center field strength and 6×99 μs pulses spaced at 1 sec interval.
The tumor cell line Panc-3, a poorly differentiated adenocarcinoma cell line of the pancreas, was supplied by AntiCancer, Inc., San Diego. For EPT experiments, tissue taken from the stock mice, where the tumor line was maintained, was thawed and cut into very small pieces about 1 mm each, and 8-10 pieces were surgically xenografted in a subcutaneous sac made in left flank of nude mice, and then closed with 6.0 surgical suture. […] The tumor dimensions were measured and the tumor volume calculated using the formula: (II/6)×a×b×c where a, b, and c a are, respectively, the length, width and thickness of the tumor. 0.5 units Bleomycin (Sigma Chemicals) was dissolved in 0.15 ml of 0.9% NaCl and was injected in each mice intratumorally by fanning for both the control (D+E−) and the treated (D+E+) groups. Ten minutes after the injection, each mouse in the D+E+ group was pulsed from a BTX T820 square wave electroporator with a set of needle array electrodes as described in the present invention. Electrical parameters used were as follows: field strength 1300 V/cm, 6 pulses of 99 μs each, at 1 sec interval.
The mice were monitored every day for mortality and any signs of a diseased state were noted. The tumor dimensions were measured at regular intervals and tumor growth regression/progression monitored.

[4] = BCC nodules, PR=partial response
[5] = Mel nodules, PR=partial response
[6] = Other nodules, PR=partial response
[7] = Total nodules, PR=partial response

bleomycin
log P (P being the partition coefficient between octanol and water) [1]: very negative | % RESPONSE CR D′D ([2]; BCC nodules): 0% | % RESPONSE CR D′E′ ([2]; BCC nodules): 98% | TUMOR RESPONSE CR D′D ([2]; BCC nodules): 0/6 | TUMOR RESPONSE CR D′E′ ([2]; BCC nodules): 43/44 | % RESPONSE NE D′D ([2]; BCC nodules): 83% | % RESPONSE NE D′E′ ([2]; BCC nodules): 0% | TUMOR RESPONSE NE D′D ([2]; BCC nodules): 5/6 | TUMOR RESPONSE NE D′E′ ([2]; BCC nodules, less than 50% reduction in tumor volume): 0/44 | TUMOR RESPONSE PR D′E′ ([2]; BCC nodules, PR=50% or greater reduction in tumor volume): 1/44 | % RESPONSE PR D′D [2, 4]: 17% | % RESPONSE PR D′E′ [2, 4]: 2% | TUMOR RESPONSE PR D′D [2, 4]: 1/6 | % RESPONSE CR D′D ([2]; Mel nodules): 0% | % RESPONSE CR D′E′ ([2]; Mel nodules): 91% | TUMOR RESPONSE CR D′D ([2]; Mel nodules): 0/5 | TUMOR RESPONSE CR D′E′ ([2]; Mel nodules): 53/58 | % RESPONSE NE D′D ([2]; Mel nodules): 100% | % RESPONSE NE D′E′ ([2]; Mel nodules): 2% | TUMOR RESPONSE NE D′D ([2]; Mel nodules): 5/5 | TUMOR RESPONSE NE D′E′ ([2]; Mel nodules): 1/58 | % RESPONSE PR D′D [2, 5]: 0% | % RESPONSE PR D′E′ [2, 5]: 7% | TUMOR RESPONSE PR D′D [2, 5]: 0/5 | TUMOR RESPONSE PR D′E′ [2, 5]: 4/58 | % RESPONSE CR D′D ([2]; Other nodules): 0% | % RESPONSE CR D′E′ ([2]; Other nodules): 80% | TUMOR RESPONSE CR D′D ([2]; Other nodules): 0/3 | TUMOR RESPONSE CR D′E′ ([2]; Other nodules): 4/5 | % RESPONSE NE D′D ([2]; Other nodules): 100% | % RESPONSE NE D′E′ ([2]; Other nodules): 0% | TUMOR RESPONSE NE D′D ([2]; Other nodules): 3/3 | TUMOR RESPONSE NE D′E′ ([2]; Other nodules): 0/5 | % RESPONSE PR D′D [2, 6]: 0% | % RESPONSE PR D′E′ [2, 6]: 20% | TUMOR RESPONSE PR D′D [2, 6]: 0/3 | TUMOR RESPONSE PR D′E′ [2, 6]: 1/5 | % RESPONSE CR D′D ([2]; Total nodules): 0% | % RESPONSE CR D′E′ ([2]; Total nodules): 93% | TUMOR RESPONSE CR D′D ([2]; Total nodules): 0/14 | TUMOR RESPONSE CR D′E′ ([2]; Total nodules): 100/107 | % RESPONSE NE D′D ([2]; Total nodules): 93% | % RESPONSE NE D′E′ ([2]; Total nodules): 1% | TUMOR RESPONSE NE D′D ([2]; Total nodules): 13/14 | TUMOR RESPONSE NE D′E′ ([2]; Total nodules): 1/107 | % RESPONSE PR D′D [2, 7]: 7% | % RESPONSE PR D′E′ [2, 7]: 6% | TUMOR RESPONSE PR D′D [2, 7]: 1/14 | TUMOR RESPONSE PR D′E′ [2, 7]: 6/107 | treated mice with no response ([3]; 2/25): 8% | treated mice that died ([3]; 20 days after treatment, 1/25): 4% | treated mice with partial (>80%) regression ([3]; 28 days following treatment, 5/25): 20% | treated mice with complete tumor regression ([3]; 28 days following treatment, 17/25): 68% | mice with tumor regrowth ([3]; 35 days after treatment, at a much slower rate): 8% | histology of tumor samples ([3]; D+E+ group, 35 days after the treatment): necrotic tumor cell ghosts; also recorded: severe necrosis of the tumor region | histology of samples from tumor site ([3]; after 120 days): complete absence of tumor cells | cases with no palpable tumor ([3]; after 120 days of the treatment, 16/25): 64% | necrosis and edema at the treatment site ([3]; bleomycin 0.5 units intratumoral + pulses): severe necrosis and edema in nearly all the mice | tumor volume ([3]; control group D+E− (drug, no pulsing)): increased dramatically | Complete Regression (100%), number of mice ([3]; 28 days after treatment): 17 | Death, number of mice ([3]; 28 days after treatment): 1 | No Response, number of mice ([3]; 28 days after treatment): 2 | Partial Regression (≧80%), number of mice ([3]; 28 days after treatment): 5 | Complete Regression (100%), number of mice ([3]; 35 days after treatment): 16 | No Response, number of mice ([3]; 35 days after treatment): 2 | Partial Regression (≧80%), number of mice ([3]; 35 days after treatment): 3 | Complete Regression (100%), number of mice ([3]; 57 days after treatment): 16 | Partial Regression (≧80%), number of mice ([3]; 57 days after treatment): 3 | Tumor regrowth, number of mice ([3]; 57 days after treatment): 2 | No Response, number of mice ([3]; 57 days after treatment, footnote a: mice sacrificed due to increased tumor burden): 1^a | Complete Regression (100%), number of mice ([3]; 84 days after treatment): 16 | No Response, number of mice ([3]; 84 days after treatment): 1 | Partial Regression (≧80%), number of mice ([3]; 84 days after treatment): 3 | Death, number of mice ([3]; 84 days after treatment, 1 died after treatment, 1 with no palpable tumor died after 64 days): 2^b | Complete Regression (100%), number of mice ([3]; 94 days after treatment): 16 | No Response, number of mice ([3]; 94 days after treatment): 1 | Partial Regression (≧80%), number of mice ([3]; 94 days after treatment): 3 | Tumor regrowth, number of mice ([3]; 94 days after treatment, footnote d: secondary metastatic tumor): 1^d | Complete Regression (100%), number of mice ([3]; 120 days after treatment): 16 | Partial Regression (≧80%), number of mice ([3]; 120 days after treatment, footnote e: fibrous tissue): 3^e | time monitored to be without tumors ([3]; representative animals (2/17), then euthanized): 243 days | tumor volume ([3]; treated group D+E+ (drug + electrical field)): substantial reduction in the tumor volume | detectable tumor ([3]; treated mice, after approximately 24 days): essentially no detectable tumor | Tumor volume (mm^3) T1 ([3]; 0 days after treatment): 123.110 mm^3 | Tumor volume (mm^3) T1 ([3]; 1 day after treatment): 210.950 mm^3 | Tumor volume (mm^3) T1 ([3]; 8 days after treatment): 104.550 mm^3 | Tumor volume (mm^3) T1 ([3]; 15 days after treatment): 113.210 mm^3 | Tumor volume (mm^3) T1 ([3]; 18 days after treatment): 161.730 mm^3 | Tumor volume (mm^3) T1 ([3]; 24 days after treatment): 41.560 mm^3 | Tumor volume (mm^3) T1 ([3]; 28 days after treatment): 0 mm^3 | Tumor volume (mm^3) T1 ([3]; 35 days after treatment): 0 mm^3 | Tumor volume (mm^3) T1 ([3]; 38 days after treatment): 0 mm^3 | Tumor volume (mm^3) T1 ([3]; 43 days after treatment): 0 mm^3 | Tumor volume (mm^3) T2 ([3]; 0 days after treatment): 178.370 mm^3 | Tumor volume (mm^3) T2 ([3]; 1 day after treatment): 252.720 mm^3 | Tumor volume (mm^3) T2 ([3]; 8 days after treatment): 211.110 mm^3 | Tumor volume (mm^3) T2 ([3]; 15 days after treatment): 226.966 mm^3 | Tumor volume (mm^3) T2 ([3]; 18 days after treatment): 246.910 mm^3 | Tumor volume (mm^3) T2 ([3]; 24 days after treatment): 47.223 mm^3 | Tumor volume (mm^3) T2 ([3]; 28 days after treatment): 0 mm^3 | Tumor volume (mm^3) T2 ([3]; 35 days after treatment): 0 mm^3 | Tumor volume (mm^3) T2 ([3]; 38 days after treatment): 0 mm^3 | Tumor volume (mm^3) T2 ([3]; 43 days after treatment): 0 mm^3
